The structures appear in SMILES notation. Where two headings read alike, the source gives them in different places.

The results in this text go back to patent US20250214991A1 (Oncopia Therapeutics, Inc. d/b/a/ SK Life Science Labs, priority 2022, published 2025).

Common to all, as to format: cell-based
Test [1] has as its target T1, IKZF2 (Homo sapiens (Human), UniProt Q96SW2+Q9UKS7). Description: In vitro IKZF2 HiBit Assay (HEK293T Flp-in-HiBiT cells). The gist of the method: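 Remaining tagged Helios was read as lytic HiBiT/LgBiT luminescence normalized to DMSO, yielding binned DC50 and Dmax values. Treatment ran 6 h, with compounds at 11 three-fold doses diluted from 1 mM and 0.1% final DMSO. The cells were HEK293T Flp-in with CRISPR knock-in of HiBiT at the IKZF2 N-terminus.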
On the technique in general: HiBiT is a short tag that completes a luciferase, so light tracks the accessible tagged protein.

In test [2] the target is T1, IKZF2. Description: In vitro IKZF2 FACS Assay in Jurkat cells. Particulars: 24 hrs; for DC50: half maximal degradation concentration; for Dmax: maximal degradation percentage. Here is the method:
In vitro IKZF2 FACS Assay
DC50, A: <1 nM; B: 1-10 nM; C: 10-100 nM; D: 100-1000 nM; E: >1000 nM. Dmax, A: >80%; B: 60-80%; C: 40-60%; D: 20-40%; E: <20%.

A further test concerns the target IKZF1 (Homo sapiens (Human), UniProt Q13422+Q96SW2). Description: In vitro IKZF1 HiBit Assay (HEK293T Flp-in-HiBiT-IKZF1 stable cell line). The gist of the method: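 Degradation was measured as loss of luminescence from the HiBiT-IKZF1 tag after 6 h compound treatment, with 0.1% final DMSO, in stable HEK293T Flp-in cells. Values were normalized to DMSO, giving the 50% degradation concentration and the maximal degradation range.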

[3] abbreviates: HEK293T Flp-in-HiBiT cells, 6 hrs incubation; read-out: IKZF2 HiBit DC50.
Where [4] appears, read: HEK-293T; HEK293T Flp-in-HiBiT cells, 6 hrs incubation; read-out: IKZF2 HiBit Dmax (%).
Setting [5] is: HEK293T Flp-in-HiBiT-IKZF1 stable cell line, 6 hrs incubation; read-out: IKZF1 HiBit DC50.
[6] abbreviates: HEK-293T; HEK293T Flp-in-HiBiT-IKZF1 stable cell line, 6 hrs incubation; read-out: IKZF1 HiBit Dmax (%).

Chain of IKZF1 (Q13422 whole entry): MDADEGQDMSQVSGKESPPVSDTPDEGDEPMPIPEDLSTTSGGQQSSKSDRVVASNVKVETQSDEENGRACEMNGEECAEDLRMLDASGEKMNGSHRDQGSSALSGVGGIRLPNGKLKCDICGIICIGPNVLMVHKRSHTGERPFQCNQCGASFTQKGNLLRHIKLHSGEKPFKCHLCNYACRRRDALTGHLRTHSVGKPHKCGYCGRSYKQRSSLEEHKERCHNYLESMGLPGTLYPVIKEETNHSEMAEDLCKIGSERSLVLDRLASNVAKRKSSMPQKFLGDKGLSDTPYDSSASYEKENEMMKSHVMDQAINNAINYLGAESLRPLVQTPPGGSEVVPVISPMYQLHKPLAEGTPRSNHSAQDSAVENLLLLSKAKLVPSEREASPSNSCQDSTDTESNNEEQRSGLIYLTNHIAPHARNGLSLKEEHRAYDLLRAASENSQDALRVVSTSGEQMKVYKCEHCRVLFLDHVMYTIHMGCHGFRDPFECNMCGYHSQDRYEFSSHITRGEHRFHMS
Chain of IKZF1 (Q96SW2 whole entry): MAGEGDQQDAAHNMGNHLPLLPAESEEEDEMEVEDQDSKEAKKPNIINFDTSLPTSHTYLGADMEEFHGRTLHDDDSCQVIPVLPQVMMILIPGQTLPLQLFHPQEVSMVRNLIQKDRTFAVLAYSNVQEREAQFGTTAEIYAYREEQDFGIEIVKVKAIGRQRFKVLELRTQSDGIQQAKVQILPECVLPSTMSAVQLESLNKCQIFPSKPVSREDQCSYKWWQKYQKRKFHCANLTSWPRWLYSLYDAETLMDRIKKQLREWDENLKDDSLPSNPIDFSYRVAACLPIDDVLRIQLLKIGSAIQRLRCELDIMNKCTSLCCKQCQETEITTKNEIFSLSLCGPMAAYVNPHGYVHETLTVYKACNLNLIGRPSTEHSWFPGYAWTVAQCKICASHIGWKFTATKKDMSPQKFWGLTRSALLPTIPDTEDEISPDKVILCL
Chain of IKZF1 (Q16531 2-1140 partner): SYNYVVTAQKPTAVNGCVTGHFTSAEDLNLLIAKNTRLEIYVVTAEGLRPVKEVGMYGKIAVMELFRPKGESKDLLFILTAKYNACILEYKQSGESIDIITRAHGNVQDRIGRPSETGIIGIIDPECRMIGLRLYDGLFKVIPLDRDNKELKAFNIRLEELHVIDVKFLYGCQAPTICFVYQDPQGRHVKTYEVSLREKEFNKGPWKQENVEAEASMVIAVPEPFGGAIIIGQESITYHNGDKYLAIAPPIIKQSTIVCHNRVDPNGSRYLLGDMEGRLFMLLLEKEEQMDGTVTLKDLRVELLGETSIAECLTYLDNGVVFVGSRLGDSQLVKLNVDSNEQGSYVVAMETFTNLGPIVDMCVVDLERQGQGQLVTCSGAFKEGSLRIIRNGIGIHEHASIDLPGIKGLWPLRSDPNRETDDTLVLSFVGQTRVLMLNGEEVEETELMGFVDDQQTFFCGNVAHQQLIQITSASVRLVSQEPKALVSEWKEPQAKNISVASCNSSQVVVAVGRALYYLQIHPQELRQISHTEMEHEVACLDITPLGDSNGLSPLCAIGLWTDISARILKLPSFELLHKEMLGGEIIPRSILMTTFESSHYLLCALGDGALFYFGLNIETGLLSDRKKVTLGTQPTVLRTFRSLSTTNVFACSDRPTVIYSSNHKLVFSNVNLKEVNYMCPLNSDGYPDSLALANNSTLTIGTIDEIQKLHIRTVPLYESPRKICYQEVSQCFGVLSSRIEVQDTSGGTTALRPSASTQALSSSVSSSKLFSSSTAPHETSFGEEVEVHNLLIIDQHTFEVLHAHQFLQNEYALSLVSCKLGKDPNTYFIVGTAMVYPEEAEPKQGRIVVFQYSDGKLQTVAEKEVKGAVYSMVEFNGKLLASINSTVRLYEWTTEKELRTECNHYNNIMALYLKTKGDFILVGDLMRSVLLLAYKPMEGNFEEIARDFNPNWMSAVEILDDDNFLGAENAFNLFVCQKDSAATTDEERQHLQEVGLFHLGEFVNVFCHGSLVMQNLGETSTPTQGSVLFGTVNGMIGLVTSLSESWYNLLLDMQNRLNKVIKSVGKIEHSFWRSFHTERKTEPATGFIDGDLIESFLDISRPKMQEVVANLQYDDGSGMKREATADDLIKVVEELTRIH
T1 sequence (Q9UKS7 whole entry): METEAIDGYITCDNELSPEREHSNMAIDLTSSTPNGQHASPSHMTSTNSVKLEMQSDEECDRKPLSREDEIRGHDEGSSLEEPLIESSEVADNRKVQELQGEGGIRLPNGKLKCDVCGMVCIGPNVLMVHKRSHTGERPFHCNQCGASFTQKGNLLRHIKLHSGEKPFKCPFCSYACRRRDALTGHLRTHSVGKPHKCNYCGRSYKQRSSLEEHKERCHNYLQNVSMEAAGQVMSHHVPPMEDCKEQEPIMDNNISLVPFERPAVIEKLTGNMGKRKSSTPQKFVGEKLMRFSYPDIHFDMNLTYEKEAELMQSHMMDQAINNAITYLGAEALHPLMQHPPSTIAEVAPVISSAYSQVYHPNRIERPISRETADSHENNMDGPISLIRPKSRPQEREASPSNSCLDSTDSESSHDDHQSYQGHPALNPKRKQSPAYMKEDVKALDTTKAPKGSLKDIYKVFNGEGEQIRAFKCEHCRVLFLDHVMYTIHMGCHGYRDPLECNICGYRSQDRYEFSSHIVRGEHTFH
T1 sequence (Q96SW2 whole entry): as the sequence (Q96SW2 whole entry) above
T1 sequence (Q16531 2-1140 partner): as the sequence (Q16531 2-1140 partner) above

In the case of `Cc1cn(C2COC2)c2nc(-c3ccc4c(c3)CN(C3CCC(=O)NC3=O)C4=O)cc(CN3CCCC3)c12` (stereo not drawn) [Example 240, 3-(5-(3-methyl-1-(oxetan-3-yl)-4-(pyrrolidin-1-ylmethyl)-1H-pyrrolo[2,3-b]pyridin-6-yl)-1-oxoisoindolin-2-yl) piperidine-2,6-dione], the values for the DC50 at IKZF2 [1] (setting [3]), on IKZF2 [2] and on IKZF1 (setting [5]) were 1 to 10 nM, 1 to 10 nM and above 10000 nM, respectively. Besides, the Dmax on IKZF2 [1] (setting [4]) is above 80%; at IKZF2 [2], above 80%; on IKZF1 (setting [6]), below 20%.

As to `CC(C)Nc1n[nH]c2c(CN3CC4COCC4C3)cc(-c3ccc4c(c3F)CN(C3CCC(=O)NC3=O)C4=O)nc12` (stereo not drawn) [Example 288, 3-(4-fluoro-5-(3-(isopropylamino)-7-((tetrahydro-1H-furo[3,4-c]pyrrol-5 (3H)-yl)methyl)-1H-pyrazolo[4,3-b]pyridin-5-yl)-1-oxoisoindolin-2-yl) piperidine-2,6-dione], the DC50 on IKZF2 [1] (setting [3]) was 1 to 10 nM; on IKZF2 [2], 10 to 100 nM; on IKZF1 (setting [5]), above 10000 nM. For the same molecule, the Dmax is above 80% at IKZF2 [1] (setting [4]), 60 to 80% at IKZF2 [2] and below 20% on IKZF1 (setting [6]).

For the molecule `CC(C)Nc1n[nH]c2c(CN3CCCC3)cc(-c3ccc4c(c3)C(C)N(C3CCC(=O)NC3=O)C4=O)nc12` (stereo not drawn) [Example 293, 3-(5-(3-(isopropylamino)-7-(pyrrolidin-1-ylmethyl)-1H-pyrazolo[4,3-b]pyridin-5-yl)-3-methyl-1-oxoisoindolin-2-vl) piperidine-2,6-dione], the DC50 on IKZF2 [1] (setting [3]) is 1 to 10 nM; on IKZF2 [2] it was 1 to 10 nM; at IKZF1 (setting [5]) it was above 10000 nM. Further, the Dmax on IKZF2 [1] (setting [4]) is above 80%; on IKZF2 [2], above 80%; at IKZF1 (setting [6]), below 20%.

`O=C1CCC(N2Cc3c(ccc(-c4nc5c(ccn5C5COC5)c(CN5CCCC5)c4Cl)c3F)C2=O)C(=O)N1` (stereo not drawn) [Example 270, 3-(5-(5-chloro-1-(oxetan-3-yl)-4-(pyrrolidin-1-ylmethyl)-1H-pyrrolo[2,3-b]pyridin-6-yl)-4-fluoro-1-oxoisoindolin-2-yl) piperidine-2,6-dione]: the DC50 was below 1 nM on IKZF2 [1] (setting [3]), 1 to 10 nM on IKZF2 [2] and above 10000 nM on IKZF1 (setting [5]). Also, the Dmax is above 80% on IKZF2 [1] (setting [4]), above 80% on IKZF2 [2] and below 20% at IKZF1 (setting [6]).

For `O=C1CCC(N2Cc3cc(-c4cc(CN5CCCC5)c5cnn(C6COC6)c5n4)ccc3C2=O)C(=O)N1` (stereo not drawn) [Example 203, 3-(5-(1-(oxetan-3-yl)-4-(pyrrolidin-1-ylmethyl)-1H-pyrazolo[3,4-b]pyridin-6-yl)-1-oxoisoindolin-2-yl) piperidine-2,6-dione], the figures for the DC50 at IKZF2 [1] (setting [3]), on IKZF2 [2] and at IKZF1 (setting [5]) were 1 to 10 nM, 1 to 10 nM and 10 to 100 nM, respectively. The Dmax on IKZF2 [1] (setting [4]) was above 80%; at IKZF2 [2], above 80%; at IKZF1 (setting [6]), 20 to 40%.

`CO[C@H]1C[C@H](Oc2ccnc3c(CN4CCCC4)cc(-c4ccc5c(c4)CN(C4CCC(=O)NC4=O)C5=O)nc23)C1` (stereo partly drawn) [Example 280, 3-(5-(8-((1r,3r)-3-methoxycyclobutoxy)-4-(pyrrolidin-1-ylmethyl)-1,5-naphthyridin-2-yl)-1-oxoisoindolin-2-yl) piperidine-2,6-dione]: the DC50 is 10 to 100 nM on IKZF2 [1] (setting [3]), 10 to 100 nM at IKZF2 [2] and above 10000 nM on IKZF1 (setting [5]). The Dmax on IKZF2 [1] (setting [4]) is 60 to 80%; at IKZF2 [2], 60 to 80%; at IKZF1 (setting [6]) it was below 20%.

For `O=C1CCC(N2Cc3cc(-c4cc(CN5CCCC5)c5ccn(C6CC(F)(F)C6)c5n4)ccc3C2=O)C(=O)N1` (stereo not drawn) [Example 274, 3-(5-(1-(3,3-difluorocyclobutyl)-4-(pyrrolidin-1-ylmethyl)-1H-pyrrolo[2,3-b]pyridin-6-yl)-1-oxoisoindolin-2-yl) piperidine-2,6-dione], the DC50 on IKZF2 [1] (setting [3]) was below 1 nM; at IKZF2 [2], 1 to 10 nM; at IKZF1 (setting [5]), 1000 to 10000 nM. Further, the Dmax on IKZF2 [1] (setting [4]) was above 80%; on IKZF2 [2] it was 60 to 80%; on IKZF1 (setting [6]) it was 20 to 40%.

Take `CC1(C)CCCN1Cc1cc(-c2ccc3c(c2)CN(C2CCC(=O)NC2=O)C3=O)nc2c1ccn2C1COC1` (stereo not drawn) [Example 254, 3-(5-(4-((2,2-dimethylpyrrolidin-1-yl)methyl)-1-(oxetan-3-yl)-1H-pyrrolo[2,3-b]pyridin-6-yl)-1-oxoisoindolin-2-yl) piperidine-2,6-dione]: the Dmax at IKZF2 [1] (HEK-293T, read-out: IKZF2 HiBit Dmax (%)) was 60 to 80%; at IKZF2 [2], 60 to 80%; at IKZF1 (HEK-293T, read-out: IKZF1 HiBit Dmax (%)) it was below 20%. Besides, the DC50 on IKZF2 [1] (read-out: IKZF2 HiBit DC50; HEK293T Flp-in-HiBiT cells, 6 hrs incubation) is 1 to 10 nM; at IKZF2 [2], 10 to 100 nM; on IKZF1 (read-out: IKZF1 HiBit DC50; HEK293T Flp-in-HiBiT-IKZF1 stable cell line, 6 hrs incubation), above 10000 nM.

For `Cn1cc(-n2ccc3c(CN4CCCC4)cc(-c4ccc5c(c4)CN(C4CCC(=O)NC4=O)C5=O)nc32)cn1` (stereo not drawn) [Example 248, 3-(5-(1-(1-methyl-1H-pyrazol-4-yl)-4-(pyrrolidin-1-ylmethyl)-1H-pyrrolo[2,3-b]pyridin-6-yl)-1-oxoisoindolin-2-yl) piperidine-2,6-dione], the results for the DC50 at IKZF2 [1] (setting [3]), at IKZF2 [2] and on IKZF1 (setting [5]) were below 1 nM, below 1 nM and 100 to 1000 nM, respectively. The Dmax at IKZF2 [1] (setting [4]) is above 80%; on IKZF2 [2], above 80%; on IKZF1 (setting [6]), 20 to 40%.

Regarding `O=C1CCC(N2Cc3c(ccc(-c4cc(CN5CCCC5)c5[nH]nc(NC6CCC6)c5n4)c3F)C2=O)C(=O)N1` (stereo not drawn) [Example 295, 1.3-(5-(3-(cyclobutylamino)-7-(pyrrolidin-1-ylmethyl)-1H-pyrazolo[4,3-b]pyridin-5-yl)-4-fluoro-1-oxoisoindolin-2-yl) piperidine-2,6-dione], the DC50 is below 1 nM on IKZF2 [1] (setting [3]), 1 to 10 nM at IKZF2 [2] and 10 to 100 nM at IKZF1 (setting [5]). In addition, the Dmax on IKZF2 [1] (setting [4]) is above 80%; at IKZF2 [2], above 80%; at IKZF1 (setting [6]) it was 40 to 60%.

Consider `CCNc1n[nH]c2c(CN3CCCC3)cc(-c3ccc4c(c3)CN(C3CCC(=O)NC3=O)C4=O)nc12` (stereo not drawn) [Example 199, 3-(5-(3-(ethylamino)-7-(pyrrolidin-1-ylmethyl)-1H-pyrazolo[4,3-b]pyridin-5-yl)-1-oxoisoindolin-2-yl) piperidine-2,6-dione], for which the DC50 on IKZF2 [1] (setting [3]) lay in the range of 1 to 10 nM; at IKZF2 [2], 10 to 100 nM; on IKZF1 (setting [5]), 10 to 100 nM. Moreover, the Dmax on IKZF2 [1] (setting [4]) was above 80%; at IKZF2 [2], 60 to 80%; on IKZF1 (setting [6]) it was 20 to 40%.

Consider `Nc1n[nH]c2c(CN3CCCC3)cc(-c3ccc4c(c3)CN(C3CCC(=O)NC3=O)C4=O)nc12` (stereo not drawn) [Example 151, 3-(5-(3-amino-7-(pyrrolidin-1-ylmethyl)-1H-pyrazolo[4,3-b]pyridin-5-yl)-1-oxoisoindolin-2-yl) piperidine-2,6-dione], for which the values for the DC50 on IKZF2 [1] (setting [3]), at IKZF2 [2] and at IKZF1 (setting [5]) were 1 to 10 nM, 1 to 10 nM and above 10000 nM, respectively. For the same molecule, the figures for the Dmax at IKZF2 [1] (setting [4]), on IKZF2 [2] and on IKZF1 (setting [6]) were above 80%, above 80% and below 20%, respectively.

Turning to `O=C1CCC(N2Cc3cc(-c4nc(CN5CCCC5)c5cc[nH]c5n4)ccc3C2=O)C(=O)N1` (stereo not drawn) [Example 182, 3-(1-oxo-5-(4-(pyrrolidin-1-ylmethyl)-7H-pyrrolo[2,3-d]pyrimidin-2-yl)isoindolin-2-yl) piperidine-2,6-dione], the results for the DC50 on IKZF2 [1] (setting [3]), at IKZF2 [2] and on IKZF1 (setting [5]) were 1 to 10 nM, 10 to 100 nM and above 10000 nM, respectively. In addition, the Dmax is above 80% on IKZF2 [1] (setting [4]), 60 to 80% on IKZF2 [2] and below 20% on IKZF1 (setting [6]).

Consider `Cn1cnc2c(CN3CCCC3)cc(-c3ccc4c(c3)CN(C3CCC(=O)NC3=O)C4=O)nc21` (stereo not drawn) [Example 180, 3-(5-(3-methyl-7-(pyrrolidin-1-ylmethyl)-3H-imidazo[4,5-b]pyridin-5-yl)-1-oxoisoindolin-2-yl) piperidine-2,6-dione], for which the DC50 at IKZF2 [1] (setting [3]) was in the range of 1 to 10 nM; at IKZF2 [2], 10 to 100 nM; on IKZF1 (setting [5]), 1 to 10 nM. In addition, the Dmax on IKZF2 [1] (setting [4]) was above 80%; on IKZF2 [2], above 80%; at IKZF1 (setting [6]), 20 to 40%.

Regarding `O=C1CCC(N2Cc3cc(-c4cc(CN5CCCC5)c5nccc(OC6CC6)c5n4)ccc3C2=O)C(=O)N1` (stereo not drawn) [Example 242, 3-(5-(8-cyclopropoxy-4-(pyrrolidin-1-ylmethyl)-1,5-naphthyridin-2-yl)-1-oxoisoindolin-2-yl) piperidine-2,6-dione], the DC50 at IKZF2 [1] (setting [3]) was 1 to 10 nM; on IKZF2 [2] it was 1 to 10 nM; at IKZF1 (setting [5]) it was above 10000 nM. For the same molecule, the Dmax was above 80% on IKZF2 [1] (setting [4]), above 80% on IKZF2 [2] and below 20% on IKZF1 (setting [6]).

`O=C1CCC(N2Cc3cc(-c4cc(CN5CCCC5)c5cnn(C6CCC6)c5n4)ccc3C2=O)C(=O)N1` (stereo not drawn) [Example 206, 3-(5-(1-cyclobutyl-4-(pyrrolidin-1-ylmethyl)-1H-pyrazolo[3,4-b]pyridin-6-yl)-1-oxoisoindolin-2-yl) piperidine-2,6-dione]: the DC50 at IKZF2 [1] (setting [3]) is 1 to 10 nM; on IKZF2 [2], 1 to 10 nM; on IKZF1 (setting [5]) it was above 10000 nM. In addition, the Dmax is above 80% at IKZF2 [1] (setting [4]), above 80% at IKZF2 [2] and below 20% at IKZF1 (setting [6]).
